Laboratory results: ChEMBL document CHEMBL1201862, “PubChem BioAssay data set” (2004)
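Values below derive from 48-hour exposures of cells grown in 96-well plates, with endpoints linearly interpolated between the two concentrations bracketing the appropriate inhibition level. The concentration for 50% growth inhibition is given as GI50.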 Activity calls are given as the source filed them. Rule as the data show it: active = GI50 up to about 1.1 µM and inactive = higher.

What was measured:
Test in all cases: growth of human tumour cells (NCI), 48 h
[1] = tested on: SF-295
[2] = tested on: SF-539
[3] = tested on: OVCAR-4
[4] = tested on: HCT-15
[5] = tested on: U-251
[6] = tested on: SF-268
[7] = tested on: SN12C
[8] = tested on: HCT-116
[9] = tested on: SNB-75
[10] = tested on: NCI-H460
[11] = tested on: HOP-92
[12] = tested on: K562
[13] = tested on: SR
[14] = tested on: UACC-257
[15] = tested on: OVCAR-5
[16] = tested on: PC-3
[17] = tested on: SK-MEL-28
[18] = tested on: NCI-H226
[19] = tested on: A549
[20] = tested on: 786-0

Structure (SMILES) | GI50 [1] | GI50 [2] | GI50 [3] | GI50 [4] [µM] | GI50 [5] | GI50 [6] | GI50 [7] | GI50 [8] | GI50 [9] | GI50 [10] | GI50 [11] | GI50 [12] | GI50 [13] | GI50 [14] | GI50 [15] | GI50 [16] | GI50 [17] | GI50 [18] | GI50 [19] | GI50 [20]
CC(C)(C)OC(=O)NC(Cc1ccc(OCc2ccccc2)cc1)C(=O)NC(COCc1ccccc1)C(=O)Oc1c(Cl)c(Cl)c(Cl)c(Cl)c1Cl (stereo not drawn) | 19.2 µM (inactive) | 15.5 µM (inactive) | 26.5 µM (inactive) | 17.8 | 18 µM (inactive) | 24.4 µM (inactive) | 23.3 µM (inactive) | 16.4 µM (inactive) | 29.6 µM (inactive) | 17.6 µM (inactive) | 13.8 µM (inactive) | > 100 µM (inactive) | 44.9 µM (inactive) | 27.6 µM (inactive) | 25.5 µM (inactive) | 19.5 µM (inactive) | 25.1 µM (inactive) | 21.4 µM (inactive) | 27.1 µM (inactive) | 
CC(C(=O)NCCNC(=O)CCC(=O)N(C)O)C(=O)NCCNC(=O)CCC(=O)N(C)O | > 100 µM (inactive) |  | > 100 µM (inactive) | > 100 | > 100 µM (inactive) | > 100 µM (inactive) |  |  | > 100 µM (inactive) | > 100 µM (inactive) | > 100 µM (inactive) | > 100 µM (inactive) | > 100 µM (inactive) | > 100 µM (inactive) | > 100 µM (inactive) | > 100 µM (inactive) | 5.71 µM (inactive) | > 100 µM (inactive) | > 100 µM (inactive) | 
COP(C)(=O)/C(Cc1ccccc1)=N\O (stereo not drawn) | > 100 µM (inactive) |  | > 100 µM (inactive) | > 100 | > 100 µM (inactive) |  | > 100 µM (inactive) | > 100 µM (inactive) | > 100 µM (inactive) | > 100 µM (inactive) | > 100 µM (inactive) | > 100 µM (inactive) | > 100 µM (inactive) | > 100 µM (inactive) | > 100 µM (inactive) | > 100 µM (inactive) | > 100 µM (inactive) | > 100 µM (inactive) | > 100 µM (inactive) | 
CCOC(=O)c1ccc(C(=O)n2ccnc2)[nH]1 | > 100 µM (inactive) |  | 84.3 µM (inactive) | > 100 | > 100 µM (inactive) | > 100 µM (inactive) | > 100 µM (inactive) | > 100 µM (inactive) | 63.5 µM (inactive) | > 100 µM (inactive) |  | > 100 µM (inactive) | > 100 µM (inactive) | > 100 µM (inactive) | > 100 µM (inactive) | > 100 µM (inactive) | > 100 µM (inactive) | > 100 µM (inactive) | > 100 µM (inactive) | > 100 µM (inactive)
N#Cc1sc2c(c1OC(=O)c1ccc(Cl)cc1)c(=O)n(-c1ccccc1)c(=S)n2-c1ccccc1 | 19.2 µM (inactive) | 20.8 µM (inactive) | 23.3 µM (inactive) | 15.8 | 11.1 µM (inactive) | 23.3 µM (inactive) | 21 µM (inactive) | 15.4 µM (inactive) | 40.8 µM (inactive) | 16.4 µM (inactive) | 18.5 µM (inactive) | 22 µM (inactive) | 19.1 µM (inactive) | 27.3 µM (inactive) | 25.8 µM (inactive) | 21.7 µM (inactive) | 16.9 µM (inactive) | 26.7 µM (inactive) | 31.4 µM (inactive) | 20.5 µM (inactive)
O=C1C(Cl)=C(N2CCSCC2)C(=O)c2c(O)ccc(O)c21 | 0.1 µM (active) |  | 0.552 µM (active) |  |  | 0.514 µM (active) |  | 0.307 µM (active) | 1 µM (active) | 0.494 µM (active) | 1.02 µM (active) |  | 0.292 µM (active) | 1.51 µM (inactive) |  | 0.1 µM (active) | 0.857 µM (active) | 0.347 µM (active) | 0.469 µM (active) | 0.1 µM (active)
COc1ccc(-c2csc3c2[N+]2(C)C=CC=C2C3N2CCCC2)cc1 (stereo not drawn) | 10.6 µM (inactive) | 17.7 µM (inactive) | 46.8 µM (inactive) | 37.9 | 7.01 µM (inactive) | 22 µM (inactive) |  | 33 µM (inactive) | 4.12 µM (inactive) | 16.1 µM (inactive) | 18.7 µM (inactive) | 6.61 µM (inactive) | 5.28 µM (inactive) | 7.4 µM (inactive) | 39 µM (inactive) | 23 µM (inactive) |  | 2.21 µM (inactive) | 39.9 µM (inactive) | 41.6 µM (inactive)
CN1CN(c2ccccc2)C2(CCN(CCCC(=O)c3cccs3)CC2)C1=O | 33 µM (inactive) | 23.8 µM (inactive) |  | 34.7 | 45.7 µM (inactive) | 74.8 µM (inactive) | 48.4 µM (inactive) | 30.1 µM (inactive) | > 100 µM (inactive) |  |  | 38.5 µM (inactive) | 53.5 µM (inactive) | 29 µM (inactive) | 35.9 µM (inactive) | 94.8 µM (inactive) | > 100 µM (inactive) | 34.5 µM (inactive) | 29.3 µM (inactive) | 35.6 µM (inactive)
CC(C)(CN1CCCCC1)C(=O)/C=C/c1c(Cl)cccc1Cl | 2.64 µM (inactive) | 2.08 µM (inactive) | 1.73 µM (inactive) | 0.879 | 1.38 µM (inactive) | 1.13 µM (inactive) | 1.49 µM (inactive) | 0.637 µM (active) | 0.735 µM (active) | 1.61 µM (inactive) | 1.05 µM (active) | 0.736 µM (active) | 0.42 µM (active) | 2 µM (inactive) | 1.48 µM (inactive) | 1.91 µM (inactive) | 1.56 µM (inactive) | 2.65 µM (inactive) | 1.95 µM (inactive) | 1.31 µM (inactive)
O=C(O)C1(Cc2ccc3c(c2)CCC3)Cc2cc3c(cc2C1)CCC3 |  | > 100 µM (inactive) | > 100 µM (inactive) | > 100 | > 100 µM (inactive) | > 100 µM (inactive) |  | > 100 µM (inactive) | > 100 µM (inactive) |  | > 100 µM (inactive) | > 100 µM (inactive) | > 100 µM (inactive) |  | > 100 µM (inactive) | > 100 µM (inactive) | > 100 µM (inactive) | > 100 µM (inactive) | > 100 µM (inactive) | > 100 µM (inactive)
CC1(c2nc3ccccc3[nH]2)CCC(C#N)C(C)(C)O1 (stereo not drawn) | > 100 µM (inactive) | > 100 µM (inactive) | > 100 µM (inactive) | > 100 | > 100 µM (inactive) | > 100 µM (inactive) | > 100 µM (inactive) | > 100 µM (inactive) | > 100 µM (inactive) |  | > 100 µM (inactive) | > 100 µM (inactive) | > 100 µM (inactive) | > 100 µM (inactive) | > 100 µM (inactive) | > 100 µM (inactive) | > 100 µM (inactive) | > 100 µM (inactive) | > 100 µM (inactive) | > 100 µM (inactive)
COc1cc(CO)c(CC(=O)NCCCc2ccccc2)cc1OC |  |  | > 100 µM (inactive) | > 100 | > 100 µM (inactive) |  | > 100 µM (inactive) | > 100 µM (inactive) | > 100 µM (inactive) | > 100 µM (inactive) | > 100 µM (inactive) | > 100 µM (inactive) | 9.06 µM (inactive) | > 100 µM (inactive) | > 100 µM (inactive) | > 100 µM (inactive) | > 100 µM (inactive) | > 100 µM (inactive) | > 100 µM (inactive) | > 100 µM (inactive)
CCN(CCO)C(=O)C1(c2ccccc2)CCCCC1 | > 10 µM (inactive) | > 10 µM (inactive) | > 10 µM (inactive) | > 10 | > 10 µM (inactive) | > 10 µM (inactive) | > 10 µM (inactive) | > 10 µM (inactive) | > 10 µM (inactive) | > 10 µM (inactive) |  | > 10 µM (inactive) | > 10 µM (inactive) |  | > 10 µM (inactive) | > 10 µM (inactive) | > 10 µM (inactive) | > 10 µM (inactive) | > 10 µM (inactive) | 
CS(=O)(=O)c1n[nH]c2nc(O)nc(O)c12 | > 10 µM (inactive) | > 10 µM (inactive) | > 10 µM (inactive) | > 10 | > 10 µM (inactive) | > 10 µM (inactive) | > 10 µM (inactive) | > 10 µM (inactive) | > 10 µM (inactive) | > 10 µM (inactive) | > 10 µM (inactive) |  | > 10 µM (inactive) | > 10 µM (inactive) | > 10 µM (inactive) | > 10 µM (inactive) | > 10 µM (inactive) | > 10 µM (inactive) | > 10 µM (inactive) | > 10 µM (inactive)
CCCCCCc1cc2cc(C(=O)Nc3nc(C45CC6CC(CC(C6)C4)C5)cs3)c(=O)oc2cc1O | 4.06 µM (inactive) | 10.8 µM (inactive) | 11.1 µM (inactive) | 3.85 | 11.6 µM (inactive) | 9.57 µM (inactive) | 5.53 µM (inactive) | 3.56 µM (inactive) | 7.62 µM (inactive) | 5.16 µM (inactive) | 4.93 µM (inactive) | 2.31 µM (inactive) | 5.6 µM (inactive) | 24.6 µM (inactive) | 16 µM (inactive) | 9.27 µM (inactive) | 29.3 µM (inactive) | 19.1 µM (inactive) | 17.7 µM (inactive) | 12.1 µM (inactive)
CCCOC1OC(CS(=O)(=O)O)C(O)C(O)C1O (stereo not drawn) | > 100 µM (inactive) |  | > 100 µM (inactive) | > 100 | > 100 µM (inactive) |  | > 100 µM (inactive) | > 100 µM (inactive) | > 100 µM (inactive) | > 100 µM (inactive) | > 100 µM (inactive) | > 100 µM (inactive) | > 100 µM (inactive) | > 100 µM (inactive) | > 100 µM (inactive) | > 100 µM (inactive) | > 100 µM (inactive) | > 100 µM (inactive) |  | 
